# According to patent US20220142959A1, “LEUCINE, ACETYL LEUCINE, AND RELATED ANALOGS FOR TREATING DISEASE” (priority 2019, published 2022):
# How the values were obtained:
# [1] = tested on: α-fodrin; assay: Western blot of α-fodrin cleavage products in cortex after CCI induced TBI; assay type: in vivo, mice; details: NALL fed vs vehicle fed mouse cortices after TBI; oral gavage 10 mg/kg daily 4 days plus chow
# Protocol: Controlled cortical impact (CCI) induced TBI was performed in male C57BL6/J mice (20-25 g). Briefly, after a 10-mm midline incision was made over the skull, the skin and fascia were retracted, and a 4-mm craniotomy was made on the central aspect of the left parietal bone of mice under surgical anesthesia (2-3% isoflurane evaporated in a gas mixture containing 70% N20 and 30% 02). Moderate injury was induced in the exposed brain by a custom microprocessor-controlled and compressed air driven pneumatic impactor of 3.5 mm diameter tip with the impact velocity of 6 m/s and a deformation depth of 2 mm. […]
# The level of α-fodrin cleavage products in NALL treated, vehicle treated sham, and TBI mouse cortices were determined by Western blot analysis and using the TUNEL assay to assess whether NALL treatment decreases cortical cell death after TBI.
# Around 5 mm tissue of ipsilateral cortex around the site of injury from TBI mice or the corresponding tissue of same volume around the same cortical region from sham mice were dissected and processed. […] Protein bands were detected using chemiluminiscence kit (Pierce, 34076) and visualized using Chemi-doc system (Bio-Rad). Band intensity was analyzed using Image Lab software (Bio-Rad) and normalized to loading control (β-Actin). […]
# [2] = tested on: M1-type and M2-type inflammatory markers (mRNA); assay: Real time rt-PCR of inflammatory markers in TBI mouse cortex; assay type: in vivo, mice; details: for expression of inflammatory markers / pro-inflammatory mediators (overall): CCI induced TBI in mice
# Protocol: Controlled cortical impact (CCI) induced TBI was performed in male C57BL6/J mice (20-25 g). Briefly, after a 10-mm midline incision was made over the skull, the skin and fascia were retracted, and a 4-mm craniotomy was made on the central aspect of the left parietal bone of mice under surgical anesthesia (2-3% isoflurane evaporated in a gas mixture containing 70% N20 and 30% 02). Moderate injury was induced in the exposed brain by a custom microprocessor-controlled and compressed air driven pneumatic impactor of 3.5 mm diameter tip with the impact velocity of 6 m/s and a deformation depth of 2 mm.
# N-Acetyl-L-Leucine (“NAL” or “NALL”) was dissolved in ethanol to prepare a 50 mg/ml solution which was then diluted in water to give a 10 mg/ml solution. About 0.25 ml of the NAL solution (10 mg/ml) was orally administered in mice at a […] (2.5 mg NAL/25 g mouse) via oral gavage each day after CCI induced TBI for 4 days. Mice were also fed with NAL at 0.5 mg/kg chow powder chow mixed with diet gel for up to 7 days after injury.
# The expression level of M1-type pro-inflammatory markers Nos2, Nlrp3, IL-1β, TNF, IFNβ and Nox2 in the perilesional area in TBI mouse cortices were determined by real time rt-PCR. The expression level of M2-type markers Socs3, YM-1, IL4ra and Arg-1 in cortical tissue was also determined.
# Total RNA isolated from the ipsilateral cortex using miRNeasy Mini Kit (Qiagen, Cat No. 217004) was converted into cDNA using High Capacity RNA to cDNA kit (Applied Biosystem, Cat. No. 4387406) as per manufacturer's instruction. cDNA TaqMan® Universal Master Mix II (Applied Biosystems, Cat. No. 4440040) was used to perform quantitative real-time PCR amplification as described previously using 20× TaqMan® Gene Expression Assay (Applied Biosystems) for following mouse genes were used: Gapdh (Mm99999915_g1), NLRP3 (Mm00840904_m1), NOX2 (Mm01287743_m1), iNOS (Mm00440502_m1), TNFα (Mm00443258_m1), IFnβ1 (Mm00439552_s1), IL-10 (Mm01288386_m1), IL1b (Mm00434228_m1), Arg1 (Mm00475988_m1), SOCS3 (Mm00545913_s1), YM-1 (Mm00657889_mH) and IL-4ra (Mm01275139_m1) (Applied Biosystems). Reactions were amplified and quantified using a 7900HT Fast Real-Time PCR System and corresponding software (Applied Biosystems). Relative gene expression normalized to Gapdh was calculated based on the comparative Ct method.
# [3] = tested on: rat model of an acute unilateral labyrinthectomy; details: activation of vestibulo-cerebellum, deactivation of posterolateral thalamus; cited from earlier work
# [4] = tested on: rat primary cortical neurons (NE and NG cultures); assay: Truncated tau and neuronal markers in neuron-enriched and neuron-glia cultures; assay type: cell-based
# Protocol: FIG. 20 is eight Western blots of tau (5E2), synaptophysin and βIII-tubulin in rat primary cortical neurons (neuron-enriched (NE) and neuron-glia (NG) cultures) in the absence and presence of ADLL, ALL, ADL, DLL, LL, DL, and LLE (1 mM, 5 days).
# The efficacy of ADLL, ALL, ADL, DLL, LL, DL, and LLE in reducing truncated tau levels in neuron-glia (NG) cultures was investigated. The results of this study are provided in FIGS. 20-24 One aim of this study was to determine whether ADLL, ALL, ADL, DLL, LL, DL, and LLE conferred intrinsic neuroprotection by sustaining neuronal function under conditions of cellular overgrowth, or whether they acted indirectly through the non-autonomous modulation of glial cells. Irrespective of whether the compounds acted directly or indirectly on neurons, preventing the generation of truncated tau confers beneficial effects to neuronal integrity.
# Cultures were treated for five days (DIV 9-14) with 1 mM of ADLL, ALL, ADL, DLL, LL, DL, or LLE, and were subsequently assessed for a number of neuron-specific markers that could provide a readout on neuronal health: βIII-tubulin, full-length tau, truncated tau (antibody 5E2) and synaptophysin. ADLL, ALL, ADL, DLL, LL, DL, and LLE were well-tolerated in NE and NG cultures, as evidenced by consistently equal levels of synaptophysin and βIII-tubulin detected across untreated (control) and drug-treated samples (FIGS. 20, 23, and 24). None of ADLL, ALL, ADL, DLL, LL, DL, and LLE reduced basal levels of truncated tau in NG cultures at DIV14 (FIG. 20 and FIG. 22).
# [5] = NAL fed mouse cortices as compared to sham mice
# [6] = cortices of NAL fed vs vehicle fed TBI mice
structure (smiles),measurement,setting,value
"CC(=O)N[C@@H](CC(C)C)C(=O)O [ALL, acetyl-L-leucine]",level of 145-150 kDa fragments of α-fodrin,[1],lower level
same,expression of inflammatory markers / pro-inflammatory mediators (overall),[2],modulates the expression of pro-inflammatory mediators
same,expression of inflammatory markers / pro-inflammatory mediators (overall),[2]; listed as NAL,reduces expression of several inflammatory markers
same,levels of IL-4ra,[2]; [5],remained unaltered
same,levels of Socs3,[2]; [5],remained unaltered
same,levels of YM-1,[2]; [5],remained unaltered
same,mRNA level of IFNβ,[2]; [6],decrease
same,mRNA level of Nox2,[2]; [6],decrease
same,levels of Arg-1,"[2]; injured mouse cortex, NAL vs vehicle fed TBI mice",lowered
same,effect on postural compensation,[3],significant effect
same,tolerability (levels of synaptophysin and βIII-tubulin vs untreated control),"[4]; NE and NG cultures, 1 mM, five days (DIV 9-14)",well-tolerated
same,reduction of basal levels of truncated tau,"[4]; NG cultures at DIV14, 1 mM, five days",None
